Test results taken from patent US9113629B2, “4-amino-6-(4-substituted-phenyl)-picolinates and 6-amino-2-(4-substituted-phenyl)-pyrimidine-4-carboxylates and their use as herbicides” (DOW AGROSCIENCES LLC, priority 2013, dated 2015).
Read-outs that look alike come from different tables or passages of the source.

Key:
[1] = tested on: Key Grass and Sedge Weeds as well as Grass Crops; test: Post-emergent Test II herbicidal activity (Table 6); assay type: in vivo; conditions: post-emergence, 336 h; for pest or weed control at 70 g/ha: 70 g ai/ha; for pest or weed control at 140 g/ha: 140 g ai/ha
Method in brief: (§1)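 Test species were raised 7–21 d under greenhouse conditions until reaching the first or second true leaf, sprayed with formulated compound at 187 L/ha, and kept subirrigated to avoid wash-off. Fourteen days later, damage was rated visually on a 0–100% scale against untreated plants.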

[2] = tested on: Key Broadleaf Weed and Crop Species; test: Post-emergent Test II herbicidal activity (Table 5); assay type: in vivo; conditions: post-emergence, 336 h, 14 days after application; for pest or weed control at 70 g/ha: application rate 70 g ai/ha; for pest or weed control at 140 g/ha: application rate 140 g ai/ha
Method in brief: as §1

[3] = CYPES: yellow nutsedge (Cyperus esculentus), read-out: Visual Growth Reduction (%) 14 Days After Application, CYPES
[4] = DIGSA: crabgrass (Digitaria sanguinalis), read-out: Visual Growth Reduction (%) 14 Days After Application, DIGSA
[5] = ECHCG: barnyardgrass (Echinochloa crus-galli), read-out: Visual Growth Reduction (%) 14 Days After Application, ECHCG
[6] = ORYSA: rice (Oryza sativa), crop, read-out: Visual Growth Reduction (%) 14 Days After Application, ORYSA
[7] = SETFA: giant foxtail (Setaria faberi), read-out: Visual Growth Reduction (%) 14 Days After Application, SETFA
[8] = SORVU: grain sorghum (Sorghum vulgare), read-out: Visual Growth Reduction (%) 14 Days After Application, SORVU
[9] = TRZSS (wheat, Triticum aestivum), crop, read-out: Visual Growth Reduction (%) 14 Days After Application, TRZSS
[10] = ZEAMX: maize, corn (Zea mays), crop, read-out: Visual Growth Reduction (%) 14 Days After Application, ZEAMX
[11] = ABUTH: velvetleaf (Abutilon theophrasti), read-out: Visual Growth Reduction (%) 14 Days After Application, ABUTH
[12] = AMARE: redroot pigweed (Amaranthus retroflexus), read-out: Visual Growth Reduction (%) 14 Days After Application, AMARE
[13] = BRSNN: oilseed-rape, canola (Brassica napus), read-out: Visual Growth Reduction (%) 14 Days After Application, BRSNN
[14] = CHEAL: lambsquarters (Chenopodium album), read-out: Visual Growth Reduction (%) 14 Days After Application, CHEAL
[15] = EPHHL: wild poinsettia (Euphorbia heterophylla), read-out: Visual Growth Reduction (%) 14 Days After Application, EPHHL
[16] = HELAN: sunflower (Helianthus annuus), read-out: Visual Growth Reduction (%) 14 Days After Application, HELAN
[17] = VIOTR: wild pansy (Viola tricolor), read-out: Visual Growth Reduction (%) 14 Days After Application, VIOTR

Work on `Nc1c(F)c(-c2ccc(Br)c(F)c2F)nc(C(=O)O)c1Cl` [Compound 147] yielded a pest or weed control at 70 g/ha [1, 3] of 95 to 100%, a pest or weed control at 140 g/ha [1, 3] of 95 to 100% and a pest or weed control at 70 g/ha [1, 4] of 85 to 94%. It also gave a pest or weed control at 140 g/ha [1, 4] of 95 to 100%, a pest or weed control at 70 g/ha [1, 5] of 95 to 100% and a pest or weed control at 140 g/ha [1, 5] of 95 to 100%. The pest or weed control at 70 g/ha [1, 6] was 60 to 74%, the pest or weed control at 140 g/ha [1, 6] was 75 to 84% and the pest or weed control at 70 g/ha [1, 7] was 0 to 29%. The pest or weed control at 140 g/ha [1, 7] was 95 to 100%, the pest or weed control at 70 g/ha [1, 8] was 95 to 100% and the pest or weed control at 140 g/ha [1, 8] was 95 to 100%. It also gave a pest or weed control at 70 g/ha [1, 9] of 60 to 74%, a pest or weed control at 140 g/ha [1, 9] of 60 to 74% and a pest or weed control at 70 g/ha [1, 10] of 95 to 100%. The pest or weed control at 140 g/ha [1, 10] was 95 to 100%, the pest or weed control at 70 g/ha [2, 11] was 95 to 100% and the pest or weed control at 140 g/ha [2, 11] was 0 to 29%. The pest or weed control at 70 g/ha [2, 12] was 95 to 100%, the pest or weed control at 140 g/ha [2, 12] was 95 to 100% and the pest or weed control at 70 g/ha [2, 13] was 95 to 100%. The pest or weed control at 140 g/ha [2, 13] was 95 to 100%, the pest or weed control at 70 g/ha [2, 14] was 95 to 100% and the pest or weed control at 140 g/ha [2, 14] was 95 to 100%. The pest or weed control at 70 g/ha [2, 15] was 95 to 100%, the pest or weed control at 140 g/ha [2, 15] was 95 to 100% and the pest or weed control at 70 g/ha [2, 16] was 95 to 100%. For the same compound, the pest or weed control at 140 g/ha [2, 16] was 95 to 100%, the pest or weed control at 70 g/ha [2, 17] was 95 to 100% and the pest or weed control at 140 g/ha [2, 17] was 95 to 100%.

For `C=Cc1c(C(=O)OC)nc(-c2ccc(Cl)c(F)c2)c(F)c1N` [Compound 215, methyl 4-amino-6-(4-chloro-3-fluorophenyl)-5-fluoro-3-vinylpicolinate], the pest or weed control at 70 g/ha [1, 3] was 95 to 100%, the pest or weed control at 140 g/ha [1, 3] was 95 to 100% and the pest or weed control at 70 g/ha [1, 4] was 0 to 29%. It also gave a pest or weed control at 140 g/ha [1, 4] of 0 to 29%, a pest or weed control at 70 g/ha [1, 5] of 0 to 29% and a pest or weed control at 140 g/ha [1, 5] of 95 to 100%. The pest or weed control at 70 g/ha [1, 6] was 0 to 29%, the pest or weed control at 140 g/ha [1, 6] was 0 to 29% and the pest or weed control at 70 g/ha [1, 7] was 0 to 29%. It also gave a pest or weed control at 140 g/ha [1, 7] of 0 to 29%, a pest or weed control at 70 g/ha [1, 8] of 45 to 59% and a pest or weed control at 140 g/ha [1, 8] of 60 to 74%. It also gave a pest or weed control at 70 g/ha [1, 9] of 0 to 29%, a pest or weed control at 140 g/ha [1, 9] of 0 to 29% and a pest or weed control at 70 g/ha [1, 10] of 30 to 44%. The pest or weed control at 140 g/ha [1, 10] was 45 to 59%, the pest or weed control at 70 g/ha [2, 11] was 95 to 100% and the pest or weed control at 140 g/ha [2, 11] was 95 to 100%. The pest or weed control at 70 g/ha [2, 12] was 95 to 100%, the pest or weed control at 140 g/ha [2, 12] was 95 to 100% and the pest or weed control at 70 g/ha [2, 13] was 95 to 100%. For the same compound, the pest or weed control at 140 g/ha [2, 13] was 95 to 100%, the pest or weed control at 70 g/ha [2, 14] was 95 to 100% and the pest or weed control at 140 g/ha [2, 14] was 95 to 100%. It also gave a pest or weed control at 70 g/ha [2, 15] of 95 to 100%, a pest or weed control at 140 g/ha [2, 15] of 95 to 100% and a pest or weed control at 70 g/ha [2, 16] of 95 to 100%. The pest or weed control at 140 g/ha [2, 16] was 95 to 100% and the pest or weed control at 70 g/ha [2, 17] was 0 to 29%.
